Like-named read-outs stand apart in the source and are kept apart here. One block for each compound: values may come before it.
System: PMA-differentiated THP-1 cells
Assay: IL-1β production in PMA-differentiated THP-1 cells stimulated with gramicidin (hTHP-1 assay containing 2% fetal bovine serum; Procedures 1 and 2)
Type: cell-based, human
Conditions: 2% fetal bovine serum
Summary of the method: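 Secreted IL-1β, read by HTRF, after gramicidin challenge (5 μM, 2 h) of THP-1 cells differentiated with PMA (20 ng/ml, 16-18 h) and plated at 50,000 cells/well in 2% FBS medium. Compounds, 0.0017-100 μM final with 0.37% DMSO, were added 1 h before stimulation.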

[1] = Table B3, hTHP-1 assay, class symbols, read-out: IC50
[2] = Homo sapiens, THP-1, Table B2, class symbols, read-out: hTHP-1 IC50
[3] = Homo sapiens, THP-1, Table B1, class symbols, read-out: Average IC50 of compounds in hTHP-1 assay: hTHP-1 IC50
[4] = Homo sapiens, THP-1, Table B1, numeric bounds, read-out: Average IC50 of compounds in hTHP-1 assay: hTHP-1 IC50
[5] = Table B2, class symbols, read-out: hTHP-1 IC50
[6] = Table B1, class symbols, read-out: Average IC50 of compounds in hTHP-1 assay: hTHP-1 IC50
[7] = Homo sapiens, THP-1, Table B3, hTHP-1 assay, class symbols, read-out: IC50
[8] = Table B4, class symbols, read-out: hTHP-1 IC50

IC50 [3]: 0.2 to 1 µM
SMILES: CC1CCc2c1nc1c(c2NC(=O)N=S(N)(=O)c2cc(C(C)(C)O)cs2)CCC1 (single isomer, unassigned) [Compound 141ab, (R,S) or (R,R)-4-(2-hydroxypropan-2-yl)-N′-((3-methyl-1,2,3,5,6,7-hexahydro-dicyclopenta[b,e]pyridin-8-yl)carbamoyl)thiophene-2-sulfonimidamide]

IC50 [5]: 0.2 to 1 µM
SMILES: Cc1c(C(F)(F)F)nc2c(c1NC(=O)N=S(N)(=O)c1cnc(C(C)(O)CO)s1)CCC2 (single isomer, unassigned) [Compound 605a, (S, RS) or (R, RS) 2-(-1,2-dihydroxypropan-2-yl)-N′-((3-methyl-2-(trifluoromethyl)-6,7-dihydro-5H-cyclopenta[b]pyridin-4-yl)carbamoyl)thiazole-5-sulfonimidamide]

IC50 [6]: 5 to 30 µM
SMILES: Cc1c(C2CC2)nc2c(c1NC(=O)N=S(N)(=O)c1cnc(C(C)(C)O)s1)CCC2 (single isomer, unassigned) [Compound 124a, (S) or (R)-N′-((2-cyclopropyl-3-methyl-6,7-dihydro-5H-cyclopenta[b]pyridin-4-yl)carbamoyl)-2-(2-hydroxypropan-2-yl)thiazole-5-sulfonimidamide]

IC50 [5]: 5 to 30 µM
SMILES: CC1(C)CCc2c1nc1c(c2NC(=O)N=S(N)(=O)c2cnc(C(C)(O)CO)s2)CCC1 (single isomer, unassigned) [Compound 201f, (R, S) and (S, S) or (S, R) and (R, R)-2-(1.2-Dihydroxvpropan-2-yl)-N′-((3,3-dimethyl-1,2,3.5.6.7-hexahydrodicyclopenta [b,e]pvridin-8-yl)carbamoyl)thiazole-5-sulfonimidamide]

IC50 [4]: > 30 µM
SMILES: CC(C)(O)c1ccc(S(N)(=O)=NC(=O)Nc2c3c(nc4c2CCC4)CCC3)s1 (single isomer, unassigned) [Compound 149b, (S) or (R)-N′-((1,2,3,5,6,7-hexahydrodicyclo-penta[b,e]pyridin-8-yl)carbamoyl)-5-(2-hydroxypropan-2-yl)thiophene-2-sulfonimidamide]

IC50 [6]: 1 to 5 µM
SMILES: CC1CCc2c1nc1c(c2NC(=O)N=S(N)(=O)c2cnc(C(C)(C)O)s2)CCC1 (single isomer, unassigned) [Compound 162ab, (S,R) or (S,S)-2-(2-hydroxypropan-2-yl)-N′-((3-methyl-1,2,3,5,6,7-hexahydrodicyclo-penta[b,e]pyridin-8-yl)carbamoyl)thiazole-5-sulfonimidamide]

IC50 [5]: 0.04 to 0.2 µM
SMILES: Cc1nc2c(c(NC(=O)N=S(N)(=O)c3cc(C(C)(C)O)cs3)c1C1CC1)CCC2 (single isomer, unassigned) [Compound 623a, (R) or (S)-N′-((3-cyclopropyl-2-methyl-6,7-dihydro-5H-cyclopenta[b]pyridin-4-yl)carbamoyl)-4-(2-hydroxypropan-2-yl)thiophene-2-sulfonimidamide]

The remaining lines, values behind:

SMILES: CC(C)(O)c1cc(F)c(S(N)(=O)=NC(=O)Nc2c3c(nc(C4CC4)c2C2CC2)CCC3)s1 (single isomer, unassigned) [Example 697, (R) or (S)-N′-((2,3-dicyclopropyl-6,7-dihydro-5H-cyclopenta[b]pyridin-4-yl)carbamoyl)-3-fluoro-5-(2-hydroxypropan-2-yl) thiophene-2-sulfonimidamide]
IC50 [1]: 0.04 to 0.2 µM

SMILES: NS(=O)(=NC(=O)Nc1c2c(nc(C(F)(F)F)c1-c1ccccc1)CCC2)c1nn(C(F)F)cc1F (stereo not shown) [Example 740, 1-(Difluoromethyl)-4-fluoro-N′-((3-phenyl-2-(trifluoromethyl)-6,7-dihydro-5H-cyclopenta[b]pyridin-4-yl)carbamoyl)-1H-pyrazole-3-sulfonimidamide]
IC50 (Homo sapiens, THP-1, Table B4, class symbols, read-out: hTHP-1 IC50): 0.04 to 0.2 µM

SMILES: Cc1c(C(F)(F)F)nc2c(c1NC(=O)N=S(N)(=O)c1ccn(C)n1)CCC2 (stereo not shown) [Compound 730]
IC50 [2]: 5 to 30 µM

SMILES: CC(C)n1nc(S(N)(=O)=NC(=O)Nc2c3c(nc4c2CCC42CC2)CCC3)cc1CO (single isomer, unassigned) [Example 642, (S) or (R)-5-(hydroxymethyl)-1-isopropyl-N′-((1′,5′,6′,7′-tetrahydro-2′H-spiro[cyclopropane-1,3′-dicyclopenta[b,e]pyridin]-8′-yl)carbamoyl)-1H-pyrazole-3-sulfonimidamide]
IC50 (Homo sapiens, THP-1, Table B3, hTHP-1 assay, numeric values, read-out: IC50): > 30 µM

SMILES: CNS(=O)(=NC(=O)Nc1c2c(nc3c1CCC3)CCC2)c1ccc(CN(C)C)cc1 (single isomer, unassigned) [Compound 120a, (R) or (S)-4-((dimethylamino)methyl)-N′-((1,2,3,5,6,7-hexahydro-dicyclopenta[b,e]pyridin-8-yl)carbamoyl)-N-methylbenzene-sulfonimidamide]
IC50 [4]: > 30 µM

SMILES: CC1CCc2c1nc1c(c2NC(=O)N=S(N)(=O)c2sc(C(C)(C)O)cc2F)CCC1 (single isomer, unassigned) [Compound 103ab, (S,S) or (S,R)-3-fluoro-5-(2-hydroxypropan-2-yl)-N′-((3-methyl-1,2,3,5,6,7-hexahydrodicyclo-penta[b,e]pyridin-8-yl)carbamoyl)thiophene-2-sulfonimidamide]
IC50 [6]: 5 to 30 µM

SMILES: CC1(C)CCc2c1nc1c(c2NC(=O)N=S(N)(=O)c2ccn(-c3ccccc3)n2)CCC1 (stereo not shown) [Compound 659, N′-((3,3-dimethyl-1,2,3,5,6,7-hexahydrodicyclopenta[b,e]pyridin-8-yl)carbamoyl)-1-phenyl-1H-pyrazole-3-sulfonimidamide]
IC50 [2]: 1 to 5 µM

SMILES: CC(C)(O)c1ncc([S@](N)(=O)=NC(=O)Nc2c3c(nc(C(F)(F)F)c2C2CC2)CCC3)s1 [Example 577, (R)—N′-((3-cyclopropyl-2-(trifluoromethyl)-6,7-dihydro-5H-cyclopenta[b]pyridin-4-yl)carbamoyl)-2-(2-hydroxypropan-2-yl)thiazole-5-sulfonimidamide]
IC50 [7]: 1 to 5 µM

SMILES: CNS(=O)(=NC(=O)Nc1c2c(nc3c1CCC3)CCC2)c1ccc(CN(C)C)cc1 (stereo not shown) [Compound 120, 4-((Dimethylamino)methyl)-N′-((1,2,3,5,6,7-hexahydrodicyclopenta[b,e]pyridin-8-yl)carbamoyl)-N-methylbenzenesulfonimidamide]
IC50 [3]: 0.2 to 1 µM

SMILES: C[C@@H]1CCc2c1nc1c(c2NC(=O)N=S(N)(=O)c2nn(C(F)F)cc2F)CCC1 (single isomer, unassigned) [Example 680, (S) or (R)-1-(difluoromethyl)-4-fluoro-N′-(((R)-3-methyl-1,2,3,5,6,7-hexahydrodicyclopenta[b,e]pyridin-8-yl)carbamoyl)-1H-pyrazole-3-sulfonimidamide]
IC50 [1]: 5 to 30 µM

SMILES: Cc1cn(C(C)C)nc1S(N)(=O)=NC(=O)Nc1c2c(nc3c1CCC3)CCC2 (stereo not shown) [Compound 687, N′-((1,2,3,5,6,7-hexahydrodicyclopenta[b,e]pyridin-8-yl)carbamoyl)-1-isopropyl-4-methyl-1H-pyrazole-3-sulfonimidamide]
IC50 [2]: 5 to 30 µM

SMILES: CN[C@H]1COc2c(S(N)(=O)=NC(=O)Nc3c(C)c(C(F)(F)F)nc4c3CCC4)cnn2C1 (stereo partly drawn) [Example 580, (6R)-N′-((3-methyl-2-(trifluoromethyl)-6,7-dihydro-5H-cyclopenta[b]pyridin-4-yl)carbamoyl)-6-(methylamino)-6,7-dihydro-5H-pyrazolo[5,1-b][1,3]oxazine-3-sulfonimidamide]
IC50 [7]: 1 to 5 µM

SMILES: CCc1c(C(F)(F)F)nc2c(c1NC(=O)N=S(N)(=O)c1nn(C(F)F)cc1F)CCC2 (single isomer, unassigned) [Example 710, (S) or (R)-1-(difluoromethyl)-N′-((3-ethyl-2-(trifluoromethyl)-6,7-dihydro-5H-cyclopenta[b]pyridin-4-yl)carbamoyl)-4-fluoro-1H-pyrazole-3-sulfonimidamide]
IC50 [1]: 5 to 30 µM

SMILES: CCn1cc(F)c(S(N)(=O)=NC(=O)Nc2c3c(nc(C(F)(F)F)c2-c2cccc(F)c2)CCC3)n1 (single isomer, unassigned) [Example 781, (R) or (S)-1-ethyl-4-fluoro-N′-((3-(3-fluorophenyl)-2-(trifluoromethyl)-6,7-dihydro-5H-cyclopenta[b]pyridin-4-yl)carbamoyl)-1H-pyrazole-3-sulfonimidamide]
IC50 [8]: 0.008 to 0.04 µM

SMILES: CC(C)(O)c1ccc(S(N)(=O)=NC(=O)Nc2c3c(nc4c2CCC4)CCC3)s1 (stereo not shown) [Compound 149, N′-((1,2,3,5,6,7-hexahydrodicyclopenta[b,e]pyridin-8-yl)carbamoyl)-5-(2-hydroxypropan-2-yl)thiophene-2-sulfonimidamide]
IC50 [3]: 0.2 to 1 µM

SMILES: NS(=O)(=NC(=O)Nc1c2c(nc(C3CC3)c1C1CC1)CCC2)c1nn(C(F)F)cc1F (single isomer, unassigned) [Example 763, (R) or (S)-N′-((2,3-dicyclopropyl-6,7-dihydro-5H-cyclopenta[b]pyridin-4-yl)carbamoyl)-1-(difluoromethyl)-4-fluoro-1H-pyrazole-3-sulfonimidamide]
IC50 [8]: 0.2 to 1 µM

SMILES: CC(C)(O)c1nc(CCO)c(S(N)(=O)=NC(=O)Nc2c3c(nc4c2CCC4)CCC3)s1 (single isomer, unassigned) [Compound 118a, (R) or (S)-N′-((1,2,3,5,6,7-hexahydrodicyclo-penta[b,e]pyridin-8-yl)carbamoyl)-4-(2-hydroxyethyl)-2-(2-hydroxypropan-2-yl)thiazole-5-sulfonimidamide]
IC50 [3]: 0.2 to 1 µM

SMILES: CC1(C)CCc2c1nc1c(c2NC(=O)N=S(N)(=O)c2ccn(C(F)F)n2)CCC1 (single isomer, unassigned) [Compound 122a, (R) or (S)-1-(difluoromethyl)-N′-((3,3-dimethyl-1,2,3,5,6,7-hexahydrodicyclo-penta[b,e]pyridin-8-yl)carbamoyl)-1H-pyrazole-3-sulfonimidamide]
IC50 [6]: 0.04 to 0.2 µM
